Patent publication US8053392B2, “Auxin acid-catalyzed stable microemulsion pesticide formulation” (PBI/Gordon Corporation, priority 2007, dated 2011)

Test: Chemical stability tests of active ingredients in microemulsion formulations at 40° C. for one month
Type: physicochemical
Method: Chemical stability tests were conducted on four-way active ingredient microemulsion formulations at 40° C. for one month to determine the active ingredient percent difference at the end of one month.
Other formulations were subjected to accelerated chemical stability tests at a temperature of 40° C. for a period of one month to determine total chemical stability of the active ingredients.
Only the chemical stability of pyraflufen-ethyl was analyzed because of its susceptibility to hydrolysis, as set forth in Examples 13-16.

[1] = four-way microemulsion of Example 11
[2] = four-way microemulsion of Example 12

| SMILES | Chemical Stability (active ingredient percent difference) [1] | Chemical Stability (active ingredient percent difference) [2] | Pyraflufen-ethyl Chemical Stability (formulation of Example 13 (2,4-D acid 9.0%, Dicamba […], Pyraflufen-ethyl 0.6%)) | Pyraflufen-ethyl Chemical Stability (formulation of Example 14 (2,4-D acid 9.0%, R(+)MCPP 1.63%, Pyraflufen-ethyl 0.6%)) | Pyraflufen-ethyl Chemical Stability (formulation of Example 15 (2,4-D acid 9.0%, R(+)MCPP 1.63%, Dicamba […], Pyraflufen-ethyl 0.6%)) | Pyraflufen-ethyl Chemical Stability (formulation of Example 16 (2,4-D acid 9.0%, Pyraflufen-ethyl 0.1%)) |
| --- | --- | --- | --- | --- | --- | --- |
| CCCCC(CC)COC(=O)COc1ccc(Cl)cc1Cl (stereo not shown) [2,4-D 2EHE, 2,4-D 2-ethyl hexyl ester] | +1.25% | +2.02% | – | – | – | – |
| CCOC(=O)COc1cc(-c2nn(C)c(OC(F)F)c2Cl)c(F)cc1Cl [Pyraflufen-ethyl] | +1.44% | −0.90% | +5.89% | +1.05% | +1.07% | +0.93% |
| O=C(O)COc1nc(Cl)c(Cl)cc1Cl [Triclopyr] | +1.94% | +2.38% | – | – | – | – |
